Source: patent US20160205931A1, “SEX PHEROMONE DERIVATIVES, AND METHODS AND USES THEREOF” (Her Majesty the Queen in Right of Canada, as rep. by the …, priority 2015, published 2016)
Values belong to the compound of their own block, whether it stands above or below them.

Tests used:
[1] = test system: male and female EAB antennae; experiment: Electroantennography (EAG), puff technique; parameters: species or system Agrilus planipennis; settings: for electroantennogram activity with male or female EABs: compared with controls / with the (3Z)- and (3E)-lactones
Description: Electroantennogram analyses (EAG) were conducted using methods and equipment generally described by Silk et al. in 2007 (Silk P J, et al (2007) Evidence for a male-produced pheromone in Tetropium fuscum (F.) (Coleoptera: Cerambycidae). Naturwissenschaften 94: 697-701). Antennae were excised close to the head and mounted using electrode gel (Spectra 360 electrode gel; Parker, Fairfield, N.J., USA) on an EAG probe (gold) for electrical contact. EAG signals were recorded using Syntech recording and analysis software v. 2.6 (Syntech, Hilversum, The Netherlands).
The (3Z)- and (3E)-lactones, and dodecan-12-olide were tested using the puff technique described by Silk et al. in 2011 (Silk P J, Ryall K, Mayo P, Lemay M, Grant G, Crook D, Cossé A, Fraser I, Sweeney J D, Lyons D B, Pitt D, Scarr T, Magee D (2011) Evidence for a volatile pheromone in Agrilus planipennis Fairmaire (Coleoptera: Buprestidae) that increases attraction to a host foliar volatile. Env Entomol 40: 904-916). Briefly: two microliters of serially diluted solutions (dichloromethane; DCM) of synthetic compounds were applied to filter paper strips (0.5 cm×5 cm, Whatman No. 1). The filter paper strips were placed in 14 cm long Pasteur pipettes, hereafter referred to as stimulus cartridges, after 5 min at room temperature. The stimulus dose tested was 1 μg. Male and female antennae were exposed to single 0.2 s puffs of odor-bearing air at 5 ml/s by placing the tip of a stimulus cartridge into a hole of a glass tube (0.7 cm ID×20 cm), 10 cm from the outlet and 11 cm away from the antennal preparation. Airflow through the glass tube was passed through a water bubbler and set at 10 ml/s. Each antennal preparation was tested with freshly prepared sets of stimuli cartridges using ˜6 male and ˜10 female antennae/treatment and used once for each treatment.
(§1) For the EAG results, male and female EAG responses were submitted to analysis of variance (ANOVA) and mean responses to each of the tested compounds separated using Tukey's test (P<0.05). […] Finally, in the trapping study, numbers of male and female EAB captured among the three treatments were analyzed separately by fitting generalized linear mixed effect models, with block as a random factor, to the Poisson distribution (GLMER function, R Development Core Team 2013). Chi-square tests were used to determine if a significant proportion of the variation in capture of male and female EAB was attributable to treatment. Chi-square tests were considered significant at P=0.05 or less and, if significant, the means separated using the Tukey's contrast option in the GLHT function (R Development Core Team 2013); raw data are presented as means±standard error.

[2] = test system: adult EAB; experiment: Two-choice Y-tube olfactometer bioassay; assay type: in vivo, Agrilus planipennis; settings: 1 μg stimulus
Description: A Y-tube olfactometer (Analytical Research Systems Inc, Micanopy, Fla., USA) was used to test for short-range attraction of adult EAB to the lactones. […] Each arm was connected to a cylinder that contained the stimulus. Charcoal-filtered air was passed into each arm at a flow rate of 1.2 L/min. Treatments were 1 μg each of (3Z)-lactone, (3E)-lactone, and dodecan-12-olide. Each stimulus was diluted in dichloromethane, placed on a strip of filter paper, and given 1 min for the solvent to evaporate before being placed in the olfactometer. A filter paper with only solvent (control) was placed in the other arm of the olfactometer. The apparatus was rinsed with acetone after each treatment, and the arm attached to the test stimulus was randomized between replicates. For each trial, a single EAB (male or female) was given 10 min to choose between the two stimuli. A choice was recorded when the beetle passed a “finish line”, 7 cm beyond the branching point of each arm. […] Beetles were 8-14 d old, and 18-23 beetles were used per treatment.
as §1

[3] = Release rate of lures; assay type: physicochemical; settings: 25° C.
Description: Traps were baited with one of three treatments: 1) (3Z)-hexenol alone; 2) 3.0 mg dose of (3Z)-lactone+(3Z)-hexenol; or 3) dodecan-12-olide+(3Z)-hexenol. The dodecan-12-olide dose was 3.0 mg or 5.0 mg. A higher dose of the analog was used to attempt to increase its effect on captures of EAB relative to the (3Z)-lactone. (3Z)-Lactone and the analog were each loaded onto rubber septa lures (Wheaton Scientific, Millville, N.J.). (3Z)-Hexenol lures were obtained from Synergy Semiochemicals. Release rates of the 3.0 mg (3Z)-lactone, 3.0 mg and 5.0 mg dodecan-12-olide lures, and (3Z)-hexenol were ˜66 μg/d, ˜60 μg/d and ˜80 μg/d. These values were determined as in Silk et al. 2011, and 50-100 mg/d (by weight loss), respectively, at 25° C. The (3Z)-lactone and analog lures were estimated to maintain sustained and almost constant release rates for a minimum of 6 wk, and thus were not replaced during the experiment. Similarly, (3Z)-hexenol lures were not replaced during the experiment.

[4] = test system: EAB; experiment: Field trapping studies, dark green sticky prism traps co-baited with (3Z)-hexenol; assay type: in vivo, Agrilus planipennis
Description: Three trapping experiments were conducted to test the effects of (3Z)-lactone and dodecan-12-olide on mean captures of EAB on dark green sticky prism traps using protocols discussed by Francese et al. in 2010 (Francese J A, Crook D J, Fraser I, Lance D A, A. J. Sawyer A J, Mastro V C (2010a) Optimization of trap color for the emerald ash borer, Agrilus planipennis (Coleoptera: Buprestidae). J Econ Entomol 103: 1235-1241) co-baited with (3Z)-hexenol. Urban street trees were used: trees were 20-40 cm in diameter, and 10-16 m in height. […] Dark green prism sticky traps (0.30×25.00×58.75 cm) (Synergy Semiochemicals Corp., Burnaby, British Columbia) were used in all field trials. Traps were spaced˜25 m apart, and lure treatments replicated in a randomized complete block design. Traps were deployed using either a limb hook over a lower to mid-canopy branch or a single rope over a mid-canopy branch. In both years, traps were checked every 2 wk and all EAB were collected, counted, and sexed.
Traps were baited with one of three treatments: 1) (3Z)-hexenol alone; 2) 3.0 mg dose of (3Z)-lactone+(3Z)-hexenol; or 3) dodecan-12-olide+(3Z)-hexenol. The dodecan-12-olide dose was 3.0 mg or 5.0 mg. A higher dose of the analog was used to attempt to increase its effect on captures of EAB relative to the (3Z)-lactone. (3Z)-Lactone and the analog were each loaded onto rubber septa lures (Wheaton Scientific, Millville, N.J.). (3Z)-Hexenol lures were obtained from Synergy Semiochemicals. […] These values were determined as in Silk et al. 2011, and 50-100 mg/d (by weight loss), respectively, at 25° C. […]
For the EAG results, male and female EAG responses were submitted to analysis of variance (ANOVA) and mean responses to each of the tested compounds separated using Tukey's test (P<0.05). […] Finally, in the trapping study, numbers of male and female EAB captured among the three treatments were analyzed separately by fitting generalized linear mixed effect models, with block as a random factor, to the Poisson distribution (GLMER function, R Development Core Team 2013). […]

Structure (SMILES): O=C1/C=C/CCCCCCCCCO1 [2E-dodecan-12-olide]
electroantennogram activity with male or female EABs [1]: not significantly different from the controls

Structure (SMILES): O=C1C/C=C/CCCCCCCCO1 [(3E)-lactone, (3E)-dodecen-12-olide, reference compound]
electroantennogram activity with male or female EABs [1]: active
proportion of the beetles that chose the stimulus arm ([2]; about 25% chose the control, no-choice beetles excluded, sex not given): about 75%

release rate of lure ([3]; by weight loss): 50000 to 100000 µg/day
Structure (SMILES): CC/C=C\CCO [(3Z)-hexenol, reference compound]

Structure (SMILES): O=C1C/C=C\CCCCCCCCO1 [(3Z)-lactone, (3Z)-dodecen-12-olide, reference compound]
electroantennogram activity with male or female EABs [1]: active

release rate of lure ([3]; 3.0 mg on rubber septa lure): ~60 µg/day
release rate of lure ([3]; 5.0 mg on rubber septa lure): ~80 µg/day
Structure (SMILES): O=C1CCCCCCCCCCCO1 [dodecan-12-olide]
females captured vs the other two treatments ([4]; FIG. 7a, 3 mg per lure, co-baited with (3Z)-hexenol): significantly more females were captured
females captured vs (3Z)-hexenol alone ([4]; FIG. 7b, dodecan-12-olide 5 mg, (3Z)-lactone 3 mg per lure, P<0.01): more females were captured
activity relative to the natural (3Z)-lactone under comparable conditions ([4]; field trial, 3 mg per lure, male captures): about 85%
mean EAG responses of male and female EAB antennae ([1]; 1 μg source concentration, vs solvent control (dichloromethane), responses to the three compounds not significantly different from each other (Tukey's), FIG. 4): significantly greater than those to the solvent control
electroantennogram activity with male or female EABs [1]: comparable to the corresponding electroantennogram activity both the natural (3Z)-lactone and the (3E)-lactone analog
attraction of female EAB to stimulus vs solvent control ([2]; females, 10 min choice, chi-square vs 1:1, FIG. 6): attracted
attraction of male EAB to stimulus vs solvent control ([2]; males, 10 min choice, chi-square vs 1:1, FIG. 5): attracted

Structure (SMILES): O=C1CCCCCCCCCCCCCCO1 [pentadecan-15-olide, reference compound]
electroantennogram activity with male or female EABs [1]: not significantly different from the controls
